In series [1] the test system is ovarian cancer cells. Briefly: Treatment of ovarian cancer cells with the anticancer drug Taxol. In kind it is cell-based. Conditions: ovarian cancer cells other than stem cells.
Series [2] has as its system ovarian cancer stem cells (R182). The series is described as follows: Cell viability by MTT assay: resistance of ovarian cancer stem cells against Taxol under NAG-1 regulation. In kind it is cell-based, Human. The protocol:
Human epithelial ovarian cancer stem cell line R182 cells were provided by Prof. Gil Mor (Yale University School of Medicine). A2780 cells were purchased from American Type Culture Collection (Manassas, Va.). Cells were maintained in RPMI 1640 medium (supplemented with 20% [v/v] heat-inactivated FBS, 50 U/ml penicillin, and […] streptomycin) in a 5% CO2 humidified incubator at 37° C. Cell numbers were counted by trypan blue (Sigma-Aldrich, St. Louis, Mo., USA) using a hemocytometer according to dye exclusion assay.
200 μl of the cultured cancer cells were seeded into a 96-well plate to have 5×10^3 cells/well, and cultured for 24 hours at a temperature of 37° C. in a wet incubator with carbon 5% and […] supplied thereto. Then, an empty vector (pSilencer 4.1-CMV-neo vector, Ambion, USA) and shRNA specific to NAG-1 were added to the ovarian cancer cells, cultured for 48 hours, and treated for 48 hours with an anticancer drug, Taxol, according to the concentrations. 50 μl of MTT solution (1 mg/ml) in PBS was added to each well, and cultured again for 6 hours. After the formation of formazan was confirmed, the MTT solution was completely removed. […] Afterwards, a micro plate reader (Molecular Devices, USA) was used to measure absorbance at 560 nm. Accordingly, the relative cell viability was calculated when cells that were not treated with an anticancer drug was considered as 100%. […]

Consider `CC(=O)O[C@H]1C(=O)[C@@]2(C)[C@H]([C@H](OC(=O)c3ccccc3)[C@]3(O)C[C@H](OC(=O)[C@H](O)[C@@H](NC(=O)c4ccccc4)c4ccccc4)C(C)=C1C3(C)C)[C@]1(OC(C)=O)CO[C@@H]1C[C@@H]2O` [Taxol], for which the “cell death of ovarian cancer cells on treatment with anticancer drug” value in series [1] is reported as “ovarian cancer cells die”. Besides, the “cell death of ovarian cancer stem cells on treatment with anticancer drug” value in series [2] (ovarian cancer stem cells) is recorded as “ovarian cancer stem cells did not die”.
As for “shRNA specific to NAG-1: shRNA having SEQ ID NO: 1 (ACAUGCACGCGCAGAUCAA), inhibitor of expression of NAG-1 protein; expression vector”, the “resistance against the anticancer drug (Taxol), amount of living cells by MTT assay” value in series [2] (R182 cells, shRNA added, cultured 48 hours, then Taxol 48 hours, compared with empty vector (FIG. 5)) is “the resistance against the anticancer drug was reduced”.

Values taken from patent publication US11246882B2, “Pharmaceutical composition for inhibiting resistance against anticancer drugs of patient suffering from ovarian cancer comprising NAG-1 inhibitor as active ingredient” (PUSAN NATIONAL UNIVERSITY INDUSTRY-UNIVERSITY COOPERATION …, priority 2015, dated 2022).
